Assay results as given in ChEMBL document CHEMBL4316647, “Raistrickindole A, an Anti-HCV Oxazinoindole Alkaloid from Penicillium raistrickii IMB17-034” (J Nat Prod, 2019).

How the values were obtained:
[1] = Selectivity index, ratio of CC50 for Cytotoxicity against human Huh7.5 cells to EC50 for antiviral activity against HCV infected in human Huh7.5 cells; type: toxicity, cell-based; conditions: read-out: Ratio CC50/EC50
Escherichia coli = experiment: Antibacterial activity against Escherichia coli; type: functional
Staphylococcus aureus = experiment: Antibacterial activity against Staphylococcus aureus; type: functional
Pseudomonas aeruginosa = experiment: Antibacterial activity against Pseudomonas aeruginosa; type: functional
Hepatitis C virus = experiment: Antiviral activity against HCV infected in human Huh7.5 cells assessed as reduction in intracellular HCV RNA incubated for 72 hrs by real-time one-step reverse-transcription polymerase chain reaction assay; type: functional, organism-based, Hepacivirus hominis; conditions: Huh7.5, 72 h
NCI-H460 = experiment: Cytotoxicity against human NCI-H460 cells; type: functional, cell-based
A549 = experiment: Cytotoxicity against human A549 cells; type: functional, cell-based
Enterococcus faecalis = experiment: Antibacterial activity against Enterococcus faecalis; type: functional
[2] = Cytotoxicity against human Huh7.5 cells assessed as reduction in cell viability; type: cell-based
HCT-116 = experiment: Cytotoxicity against human HCT116 cells; type: functional, cell-based

SMILES | MIC (Escherichia coli) | MIC (Staphylococcus aureus) | MIC (Pseudomonas aeruginosa) | EC50 (Hepatitis C virus) | MIC (Enterococcus faecalis) | selectivity ratio [1] | IC50 (NCI-H460) | IC50 (A549) | CC50 [2] | IC50 (HCT-116)
O=C1NCc2nc3ccccc3c(=O)n2-c2ccccc21 [SCLEROTIGENIN] | > 128 µg/mL | > 128 µg/mL | > 128 µg/mL | 5.8 µM | > 128 µg/mL | > 35 | ≥ 100 µM | ≥ 100 µM | > 200 µM | ≥ 100 µM
O=C1Cn2c(nc3ccccc3c2=O)-c2ccccc2N1 | > 128 µg/mL | > 128 µg/mL | > 128 µg/mL | 7 µM | > 128 µg/mL | > 28 | ≥ 100 µM | ≥ 100 µM | > 200 µM | ≥ 100 µM

Continued, in another order:

MIC (Escherichia coli) | MIC (Staphylococcus aureus) | MIC (Pseudomonas aeruginosa) | EC50 (Hepatitis C virus) | MIC (Enterococcus faecalis) | SMILES | selectivity ratio [1] | IC50 (NCI-H460) | IC50 (A549) | CC50 [2] | IC50 (HCT-116)
 |  |  | 0.05 µM |  | CCC[C@H](NC(=O)[C@@H]1[C@H]2CCC[C@H]2CN1C(=O)[C@@H](NC(=O)[C@@H](NC(=O)c1cnccn1)C1CCCCC1)C(C)(C)C)C(=O)C(=O)NC1CC1 [TELAPREVIR] | 478 |  |  | 25.8 µM | 
> 128 µg/mL | > 128 µg/mL | > 128 µg/mL | 5.7 µM | > 128 µg/mL | O=C1N[C@@H](Cc2ccccc2)C(=O)N2O[C@H]3Nc4ccccc4[C@@]3(O)C[C@@H]12 | > 35 | ≥ 100 µM | ≥ 100 µM | > 200 µM | ≥ 100 µM
> 128 µg/mL | > 128 µg/mL | > 128 µg/mL | > 33.3 µM | > 128 µg/mL | O=C1N[C@@H](Cc2ccccc2)C(=O)N(O)[C@H]1C[C@]1(O)c2ccccc2N2C(=O)C[C@@H](c3ccccc3)N[C@H]21 | < 3 | ≥ 100 µM | ≥ 100 µM | 88.4 µM | ≥ 100 µM
